Results from ChEMBL document CHEMBL1201862, “PubChem BioAssay data set” (2004).
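1) Cells in 96-well plates. 2) Compound, 48 h, 5 concentrations. 3) Linear interpolation between surrounding doses. 4) Unreached endpoint = highest concentration. GI50 = concentration required for 50% inhibition of growth.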 Active and inactive are the calls of the source. No stated cut-off is given here; in the data, active = GI50 up to about 1.1 µM and inactive = higher.

Legend:
Test in all cases: growth of human tumour cells (NCI), 48 h
A549 = system: A549
OVCAR-5 = system: OVCAR-5
SF-539 = system: SF-539
CCRF-CEM = system: CCRF-CEM
SK-OV-3 = system: SK-OV-3
COLO 205 = system: COLO 205
TK-10 = system: TK-10
NCI/ADR-RES = system: NCI/ADR-RES
MDA-N = system: MDA-N
HOP-92 = system: HOP-92
HCT-15 = system: HCT-15
RXF 393 = system: RXF 393
NCI-H522 = system: NCI-H522
ACHN = system: ACHN
OVCAR-4 = system: OVCAR-4
UO-31 = system: UO-31
M14 = system: M14
BT-549 = system: BT-549
RPMI-8226 = system: RPMI-8226

| SMILES | GI50 (A549) | GI50 (OVCAR-5) | GI50 (SF-539) | GI50 (CCRF-CEM) | GI50 (SK-OV-3) | GI50 (COLO 205) | GI50 (TK-10) | GI50 (NCI/ADR-RES) | GI50 (MDA-N) | GI50 (HOP-92) | GI50 (HCT-15) | GI50 (RXF 393) | GI50 (NCI-H522) | GI50 (ACHN) | GI50 (OVCAR-4) | GI50 (UO-31) | GI50 (M14) | GI50 (BT-549) | GI50 (RPMI-8226) |
| --- | --- | --- | --- | --- | --- | --- | --- | --- | --- | --- | --- | --- | --- | --- | --- | --- | --- | --- | --- |
| FC(F)(F)c1ccc2c(-c3cc[nH]c3)ccnc2c1 | 26 µM (inactive) | 44.9 µM (inactive) | 37.8 µM (inactive) | 32.6 µM (inactive) | > 100 µM (inactive) | 23.6 µM (inactive) | 28.6 µM (inactive) | 37.1 µM (inactive) | 32.3 µM (inactive) | 52.4 µM (inactive) | > 100 µM | 22.5 µM (inactive) | 32.4 µM (inactive) | 31.8 µM (inactive) | 53.2 µM (inactive) | 20.9 µM (inactive) | 34.5 µM (inactive) | 22.6 µM (inactive) | 34.2 µM (inactive) |
| O=C1OC(c2ccccc2)=N/C1=C\c1ccc(N(CCCl)CCCl)cc1 | > 100 µM (inactive) | > 100 µM (inactive) | > 100 µM (inactive) | 26 µM (inactive) | > 100 µM (inactive) | > 100 µM (inactive) | > 100 µM (inactive) | > 85.1 µM (inactive) | > 100 µM (inactive) | > 52.5 µM (inactive) | > 100 µM | 42 µM (inactive) | 21.3 µM (inactive) | > 62.5 µM (inactive) | > 100 µM (inactive) | > 78.3 µM (inactive) | > 100 µM (inactive) | > 100 µM (inactive) | 35.1 µM (inactive) |
| CC(=O)Nc1ccc(S(=O)(=O)Nc2nc(-c3ccc(Cl)cc3)cc(N3N=C(c4ccc(Br)cc4)CC3c3ccccc3)n2)cc1 (configuration not stated) | 17.7 µM (inactive) | 14.3 µM (inactive) | 16.9 µM (inactive) | 26.1 µM (inactive) | 15.8 µM (inactive) | 14.1 µM (inactive) | 14 µM (inactive) | 17.1 µM (inactive) | 5.51 µM (inactive) | 13.7 µM (inactive) | 15.7 µM | 13.8 µM (inactive) | 14.8 µM (inactive) | 24.5 µM (inactive) | 15 µM (inactive) | 15.4 µM (inactive) | 18.1 µM (inactive) | 17.8 µM (inactive) | 12.1 µM (inactive) |
